In the data set the test system is CCRIS mutagenicity, Ames/micronucleus/aberration tests. Kind of data set: CCRIS mutagenicity studies.
Where [1] appears, read: Test System: AMES SALMONELLA TYPHIMURIUM, Strain/Indicator: TA98, Metabolic Activation: NONE, Method: STANDARD PLATE.
Where [2] appears, read: Test System: AMES SALMONELLA TYPHIMURIUM, Strain/Indicator: TA100, Metabolic Activation: NONE, Method: STANDARD PLATE.
The mark [3] stands for this setting: Test System: AMES SALMONELLA TYPHIMURIUM, Strain/Indicator: TA1535, Metabolic Activation: NONE, Method: STANDARD PLATE.
[4] abbreviates: Test System: AMES SALMONELLA TYPHIMURIUM, Strain/Indicator: TA1538, Metabolic Activation: NONE, Method: STANDARD PLATE.

Activity calls are given as the source filed them. How the calls were made is not given here.

As to `O[C@H]1C=Cc2c(ccc3nc4ccc5ccccc5c4cc23)[C@@H]1O`, the mutagenic call was “inactive; negative” (Test System: AMES SALMONELLA TYPHIMURIUM, Strain/Indicator: TA98, Metabolic Activation: GUINEA PIG, LIVER, S-9, 3-METHYLCHOLANTHRENE, Method: STANDARD PLATE); “active; positive” (Test System: AMES SALMONELLA TYPHIMURIUM, Strain/Indicator: TA100, Metabolic Activation: GUINEA PIG, LIVER, S-9, 3-METHYLCHOLANTHRENE, Method: STANDARD PLATE); “active; positive” (Test System: CHINESE HAMSTER V-79, Strain/Indicator: V-79/6-THIOGUANINE, Metabolic Activation: GUINEA PIG, LIVER, S-9, 3-METHYLCHOLANTHRENE).
For the compound `CCc1ccco1`, the mutagenic call reads like this: (Test System: AMES SALMONELLA TYPHIMURIUM, Strain/Indicator: TA98, Metabolic Activation: HAMSTER, LIVER, S-9, AROCLOR 1254, Method: STANDARD PLATE) “inactive; negative”; under setting [1], “inactive; negative”; (Test System: AMES SALMONELLA TYPHIMURIUM, Strain/Indicator: TA98, Metabolic Activation: RAT, LIVER, S-9, AROCLOR 1254, Method: STANDARD PLATE) “inactive; negative”; (Test System: AMES SALMONELLA TYPHIMURIUM, Strain/Indicator: TA100, Metabolic Activation: HAMSTER, LIVER, S-9, AROCLOR 1254, Method: STANDARD PLATE) “inactive; negative”; under setting [2], “inactive; negative”; (Test System: AMES SALMONELLA TYPHIMURIUM, Strain/Indicator: TA100, Metabolic Activation: RAT, LIVER, S-9, AROCLOR 1254, Method: STANDARD PLATE) “inactive; negative”. Further, the mutagenic call runs as follows: (Test System: AMES SALMONELLA TYPHIMURIUM, Strain/Indicator: TA1535, Metabolic Activation: HAMSTER, LIVER, S-9, AROCLOR 1254, Method: STANDARD PLATE) “inactive; negative”; under setting [3], “inactive; negative”; (Test System: AMES SALMONELLA TYPHIMURIUM, Strain/Indicator: TA1535, Metabolic Activation: RAT, LIVER, S-9, AROCLOR 1254, Method: STANDARD PLATE) “inactive; negative”; (Test System: AMES SALMONELLA TYPHIMURIUM, Strain/Indicator: TA1537, Metabolic Activation: HAMSTER, LIVER, S-9, AROCLOR 1254, Method: STANDARD PLATE) “inactive; negative”; (Test System: AMES SALMONELLA TYPHIMURIUM, Strain/Indicator: TA1537, Metabolic Activation: NONE, Method: STANDARD PLATE) “inactive; negative”; (Test System: AMES SALMONELLA TYPHIMURIUM, Strain/Indicator: TA1537, Metabolic Activation: RAT, LIVER, S-9, AROCLOR 1254, Method: STANDARD PLATE) “inactive; negative”. Moreover, the mutagenic call is, setting by setting: (Test System: AMES SALMONELLA TYPHIMURIUM, Strain/Indicator: TA1538, Metabolic Activation: HAMSTER, LIVER, S-9, AROCLOR 1254, Method: STANDARD PLATE) “inactive; negative”; under setting [4], “inactive; negative”; (Test System: AMES SALMONELLA TYPHIMURIUM, Strain/Indicator: TA1538, Metabolic Activation: RAT, LIVER, S-9, AROCLOR 1254, Method: STANDARD PLATE) “inactive; negative”; (Test System: MOUSE LYMPHOMA, Strain/Indicator: L5178Y (TK+/TK-), Metabolic Activation: NONE, Method: SUSPENSION/PLATE) “inactive; negative”; (Test System: MOUSE LYMPHOMA, Strain/Indicator: L5178Y (TK+/TK-), Metabolic Activation: RAT, LIVER, S-9, AROCLOR 1254, Method: SUSPENSION/PLATE) “active; positive”; (Test System: Mouse lymphoma, Strain/Indicator: L5178Y (tk+/tk-), Metabolic Activation: Rat, Liver, S-9, Aroclor 1254, Method: Suspension/plate) “active; equivocal (previous evaluation positive)”.
For the compound `COC1=CC(=O)OC(/C=C/c2ccccc2)C1` (configuration not stated), the mutagenic call (Test System: L5178Y ( tk+/tk-), Metabolic Activation: Human, Liver, S-9, Method: Suspension/plate) is “inactive; negative”.
As to `COc1ccc2nc3cc(Cl)ccc3c(NCCCNCCCl)c2c1`, the mutagenic call was “active; positive” (Test System: AMES SALMONELLA TYPHIMURIUM, Strain/Indicator: TA97A, Metabolic Activation: NONE, Method: STANDARD PLATE); “active; positive” under setting [1]; “active; positive” under setting [2]; “inactive; negative” under setting [3]; “active; positive” (Test System: AMES SALMONELLA TYPHIMURIUM, Strain/Indicator: TA1536, Metabolic Activation: NONE, Method: STANDARD PLATE); “active; positive” under setting [4]. Besides, the mutagenic call was “active; positive” (Test System: CHINESE HAMSTER V-79, Strain/Indicator: V-79/6-THIOGUANINE, Metabolic Activation: NONE, Method: FLASK ASSAY); “active; positive” (Test System: CHO/HGPRT, Strain/Indicator: CHO-K1-BH4, Metabolic Activation: NONE, Method: STANDARD PLATE); “active; positive” (Test System: UDS RODENT CELLS, Strain/Indicator: THY INCORP (NON-S-PHASE), Metabolic Activation: NONE, Method: LIQUID SCINTILLATION COUNTING).
`O/C=C/Cc1ccc2c(c1)OCO2`: under “Test System: UDS HUMAN FIBROBLASTS, Strain/Indicator: THY INCORP (NON-S-PHASE), Metabolic Activation: NONE, Method: AUTORADIOGRAPHY”, the mutagenic call was “active; positive”.

For the origin of these results see PubChem BioAssay AID1259407 (Chemical Carcinogenesis Research Information System (CCRIS), 2018).
